Test results: patent US20060128792A1, “Deguelin as a chemopreventive agent for lung cancer” (priority 2002, published 2006)
Several values for one entry are separate records, joined by “and”; a condition that tells them apart may be missing. Identical values can stand only once.

Tests used:
Assay type in all cases: cell-based
[1] = tested on: HUVEC cells; test: HUVEC proliferation, MTT assay; conditions: 0.1, 1 and 10 μM, 3 days
Procedure: FIGS. 9A-9D.—Anti-angiogenic activity of deguelin. (FIG. 9A) CAMs after incubation with Thermanox coverslips containing vehicle (Con), deguelin ([…]) or RA (1 μg) as a positive control or for 48 h (circle indicate the placement of coverslip). (FIG. 9B) The anti-angiogenic effect of deguelin was evaluated by calculating the percentage of positive eggs. □ empty coverslip as control; ▪ RA 1 μg/egg; ▪ deguelin 1 or 5 nmole/egg. Each value represents the mean±SE. (FIG. 9C) Appearance of matrigel from mice. The effects of deguelin on bFGF-induced angiogenesis in vivo was analyzed by matrigel plug assay using nude mouse. Matrigel alone (Con)—negative control, 100 ng/ml bFGF and 72 units/ml heparin in a vehicle of 0.1% BSA/PBS (bFGF)—positive control, 5 niole deguelin alone, and 5 nmole deguelin plus bFGF were included. (FIG. 9D) Proliferation of HUVEC cells treated with indicated doses of deguelin for 3 days was analyzed by MTT assay. Bars, means±SD of a representative experiment done in triplicate from five independently performed experiments for each cell line.
Inhibition of angiogenesis by deguelin was also evaluated using the Matrigel™ plug assay, an established in vivo angiogenesis model, using nude mice. […]

[2] = tested on: bax and bcl-2 in lung cancer cell lines; test: Western blot of bax and bcl-2; conditions: 10^−7 M deguelin
Procedure: (§1) Immunoblotting. Whole cell lysates were prepared in lysis buffer (50 mM N-[2-[…]]-piperazine-N′-[2-ethanesulfonic acid] [HEPES; pH 7.5], 150 mM NaCl, 1.5 mM MgCl2, ImM EDTA, 0.2 mM EGTA, 1% NP40, 10% glycerol, 1 mM dithiothreitol (DTT), 1 mM phenylmethylsulfonyl fluoride, 20 mM sodium fluoride, 5 mM sodium orthovanadate, 10 μg/ml aprotinin, 10 μg/ml leupeptin, 2 μg/ml pepstatin, and 1 mM benzamidine) as described previously (Lee et al., 2002). Equivalent protein concentrations were resolved in sodium dodecyl sulfate-polyacrylamide gels and transferred to a nitrocellulose membrane. After the blocking of transblotted membrane in Tris-buffered saline (TBS) containing 0.05% Tween 20 (TBST) and 5% low fat milk, themembrane was incubated with primary antibody at the appropriate dilution in TBS-5% low-fat milk at 4° C. for 16 h and washed with TBST. The immunoblots were visualized using the ECL kit (Amersham, Inc., Arlington Heights, III) according to the manufacturer's directions. […]
The apoptotic effect of deguelin was further assessed in HBE cells. […] Apoptosis was analyzed by flow cytometry as described above. […] To confirm the apoptotic activity in these cells, bax and bcl-2 expression were analyzed by western blotting. […] Thus, it was determined that deguelin increases bax expression thereby inducing the apoptotic activity in lung cancer cells.

[3] = tested on: pAkt (Ser473) and pGSK-3β (Ser9) in 1799 cells; test: Western blot of pAkt (Ser473) and pGSK-3β (Ser9)
Procedure: as §1, with “directions. Rabbit polyclonal antibodies against human pAkt (Ser473), Akt, and pGSK-3β (Ser9), and mouse monoclonal antibody against human anti-pMAPK (Thr202/Tyr204) were purchased from Cell Signalinng Technology (Beverly, Mass.).” for “directions.”

[4] = tested on: H596; test: MTT assay, growth inhibition by deguelin or deguelin derivatives; conditions: H596, 3 days
[5] = tested on: H226Br; test: as above; conditions: 3 days
[6] = tested on: H1299; test: as above; conditions: H1299, 3 days
[7] = tested on: H226B; test: as above; conditions: 3 days
[8] = tested on: Sk-mes; test: as above; conditions: 3 days

For `COc1cc2c(cc1OC)[C@@H]1C(=O)c3ccc4c(c3O[C@@H]1CO2)C=CC(C)(C)O4` [Deguelin], the “proliferation of HUVEC cells” value [1] was “Inhibition of cell proliferation was observed”, the Bcl-2 expression [2] was “not found to be regulated” and the bax expression [2] was “Increased”. For the same compound, the “pAkt level, time course” value ([3]; 10^−7 M deguelin) was “reduced after 7 h of treatment and was virtually undetectable after 14 h”, the “levels of pAkt (Ser473) and pGSK-3β (Ser9)” value ([3]; time-dependent, Akt, GSK-3α/β and β-Actin not affected) was “decreased” and the Avg. % con ([4]; deguelin 10^−6M) was 0.62 % con. For the same compound, the “MTT value, mean of replicates (unheaded line)” value (“MTT value, mean of replicates” below) ([4]; deguelin 10^−6M) was 0.290, the “MTT value, replicate (unheaded line)” value ([4]; deguelin 10^−6M) was 0.29 and 0.298 and 0.281 and the Avg. % con ([4]; deguelin 10^−8M) was 0.67 % con. For the same compound, the “MTT value, mean of replicates” value ([4]; deguelin 10^−8M) was 0.314, the “MTT value, replicate (unheaded line)” value ([4]; deguelin 10^−8M) was 0.324 and 0.311 and 0.307 and the Avg. % con ([4]; deguelin 10^−10M) was 0.67 % con. The “MTT value, mean of replicates” value ([4]; deguelin 10^−10M) was 0.313, the “MTT value, replicate (unheaded line)” value ([4]; deguelin 10^−10M) was 0.314 and 0.338 and 0.287 and the Avg. % con ([4]; deguelin 10^−12M) was 0.76 % con. For the same compound, the “MTT value, mean of replicates” value ([4]; deguelin 10^−12M) was 0.358, the “MTT value, replicate (unheaded line)” value ([4]; deguelin 10^−12M) was 0.386 and 0.372 and 0.317 and the Av. % con ([5]; deguelin 10^−6M) was 0.82 % con. The “MTT value, mean of replicates” value ([5]; deguelin 10^−6M) was 0.266, the “MTT value, replicate (unheaded line)” value ([5]; deguelin 10^−6M) was 0.264 (2×) and 0.271 and the Av. % con ([5]; deguelin 10^−8M) was 0.85 % con. The “MTT value, mean of replicates” value ([5]; deguelin 10^−8M) was 0.276, the “MTT value, replicate (unheaded line)” value ([5]; deguelin 10^−8M) was 0.296 and 0.273 and 0.259 and the Av. % con ([5]; deguelin 10^−10M) was 1.02 % con. The “MTT value, mean of replicates” value ([5]; deguelin 10^−10M) was 0.330, the “MTT value, replicate (unheaded line)” value ([5]; deguelin 10^−10M) was 0.321 and 0.329 and 0.34 and the Av. % con ([5]; deguelin 10^−12M) was 0.96 % con. The “MTT value, mean of replicates” value ([5]; deguelin 10^−12M) was 0.310, the “MTT value, replicate (unheaded line)” value ([5]; deguelin 10^−12M) was 0.3 and 0.318 and 0.313 and the Avg. % con ([6]; deguelin 10^−6M) was 0.36 % con. For the same compound, the “MTT value, mean of replicates” value ([6]; deguelin 10^−6M) was 0.048, the “MTT value, replicate (unheaded line)” value ([6]; deguelin 10^−6M) was 0.052 and 0.043 and 0.049 and the Avg. % con ([6]; deguelin 10^−8M) was 0.78 % con. For the same compound, the “MTT value, mean of replicates” value ([6]; deguelin 10^−8M) was 0.104, the “MTT value, replicate (unheaded line)” value ([6]; deguelin 10^−8M) was 0.101 and 0.108 and 0.103 and the Avg. % con ([6]; deguelin 10^−10M) was 0.73 % con. The “MTT value, mean of replicates” value ([6]; deguelin 10^−10M) was 0.098, the “MTT value, replicate (unheaded line)” value ([6]; deguelin 10^−10M) was 0.119 and 0.087 and 0.089 and the Avg. % con ([6]; deguelin 10^−12M) was 0.98 % con. For the same compound, the “MTT value, mean of replicates” value ([6]; deguelin 10^−12M) was 0.132, the “MTT value, replicate (unheaded line)” value ([6]; deguelin 10^−12M) was 0.121 and 0.136 and 0.138 and the Avg. % con ([7]; deguelin 10^−6M) was 0.34 % con. The “MTT value, mean of replicates” value ([7]; deguelin 10^−6M) was 0.113, the “MTT value, replicate (unheaded line)” value ([7]; deguelin 10^−6M) was 0.117 (2×) and 0.106 and the Avg. % con ([7]; deguelin 10^−8M) was 0.46 % con. The “MTT value, mean of replicates” value ([7]; deguelin 10^−8M) was 0.150, the “MTT value, replicate (unheaded line)” value ([7]; deguelin 10^−8M) was 0.153 and 0.147 and 0.149 and the Avg. % con ([7]; deguelin 10^−10M) was 0.86 % con. The “MTT value, mean of replicates” value ([7]; deguelin 10^−10M) was 0.283, the “MTT value, replicate (unheaded line)” value ([7]; deguelin 10^−10M) was 0.295 and 0.282 and 0.272 and the Avg. % con ([7]; deguelin 10^−12M) was 0.91 % con. For the same compound, the “MTT value, mean of replicates” value ([7]; deguelin 10^−12M) was 0.299, the “MTT value, replicate (unheaded line)” value ([7]; deguelin 10^−12M) was 0.274 and 0.32 and 0.304 and the Avg. % con ([8]; deguelin 10^−6M) was 0.45 % con. The “MTT value, mean of replicates” value ([8]; deguelin 10^−6M) was 0.121, the “MTT value, replicate (unheaded line)” value ([8]; deguelin 10^−6M) was 0.107 and 0.135 and 0.122 and the Avg. % con ([8]; deguelin 10^−8M) was 0.79 % con. For the same compound, the “MTT value, mean of replicates” value ([8]; deguelin 10^−8M) was 0.211, the “MTT value, replicate (unheaded line)” value ([8]; deguelin 10^−8M) was 0.207 and 0.209 and 0.216 and the Avg. % con ([8]; deguelin 10^−10M) was 0.92 % con. For the same compound, the “MTT value, mean of replicates” value ([8]; deguelin 10^−10M) was 0.247, the “MTT value, replicate (unheaded line)” value ([8]; deguelin 10^−10M) was 0.243 and 0.223 and 0.274 and the Avg. % con ([8]; deguelin 10^−12M) was 0.96 % con. For the same compound, the “MTT value, mean of replicates” value ([8]; deguelin 10^−12M) was 0.258 and the “MTT value, replicate (unheaded line)” value ([8]; deguelin 10^−12M) was 0.253 and 0.258 and 0.264.
